Reference: US20140309192A1, “MODULATORS OF THE G PROTEIN-COUPLED MAS RECEPTOR AND THE TREATMENT OF DISORDERS RELATED THERETO” (ARENA PHARMACEUTICALS, INC., priority 2011, published 2014)
Entries after “also recorded” stand apart in the source; their conditions may differ.

Legend:
[1] = Mean arterial blood pressure in anesthetized rats (Example 4); type: in vivo, rat; conditions: low, medium and high dose i.v.; 25 min after starting dosing
Experimental: Adult rats were anesthetized with sodium pentobarbital (50 mg/kg i.p.) and placed in the supine position on a surgery frame with a heating pad (37° C.) beneath. Rats were tracheostomized and ventilated with a SAR-830 small-animal ventilator (Model 683, Harvard Apparatus) to provide room air at a tidal volume of 2.5 mL/stroke and at a rate of 70 stroke/min. Polyethylene catheters were placed in the right internal carotid artery and the external jugular vein for measurement of mean arterial blood pressure and infusion of drug or vehicle, respectively.
Animals were randomly divided into the following 4 groups: (1-3) low, medium, and high doses of Compound 170 administered by continuous i.v. infusion starting 30 min before coronary artery ligation (n=6 per dose), and (4) 20% HPBCD (vehicle, hydroxypropyl-β-cyclodextrin) administered by continuous i.v. infusion beginning 30 min before coronary artery ligation (n=6). All the rat hearts listed above were used for calculation of myocardial infarct size (see below). Mean arterial blood pressure was measured after stabilization and just prior to drug infusion (baseline) and again following 25 min of drug or vehicle infusion, before coronary artery ligation. […]

LPS induced TNFα = test: LPS model for sepsis induction, serum TNFα ELISA in mice; type: in vivo, mouse
Experimental: Mice were treated intravenously with either 20% DMSO (vehicle), 1, 3 or 10 mg/kg Compound 170 in 20% DMSO. Alternatively animals were treated with 1 mg/kg IB-MECA in 0.1% DMSO as a positive control (n=6 per group). 1 hour after drug treatment, animals received 500 μg of LPS intraperitoneally Animals were bled 75 minutes after LPS treatment and the blood was spun down for serum. An ELISA for mouse TNFα (Invitrogen) was performed on 1:50 diluted samples the following day.

[2] = test system: isolated perfused rat hearts; test: Ex vivo coronary flow, Langendorff perfused isolated rat hearts; conditions: AR234960 1 μM
Experimental: Coronary flow was measured in male Mas^−/− and Mas^+/+ mice, and in male Sprague-Dawley rats using Langendorff perfused isolated hearts. Freshly isolated hearts were placed on a Langendorff apparatus (Harvard Apparatus) and perfused at a constant pressure of 80 mmHg with a modified Krebs-Henseleit buffer solution (Sigma K3753) and aerated with 95% oxygen and 5% carbon dioxide, pH 7.35-7.4. The temperature was maintained at 37° C. by surrounding the heart with a water-heated glassware chamber. Coronary flow was measured using a flow measurement system (Harvard Apparatus) which included the transit time flow meter and a flow probe built into an adaptor block located at the perfusate inflow port. Data were recorded continuously using an ISOHEART data acquisition system (Harvard Apparatus). After a 20-min equilibration period, Mas compounds were added to the perfusion buffer reservoir at the desired concentration (agonist AR234960 at 1 μM, or inverse agonist AR244555 at 5 μM) and coronary flow was recorded for 10 min
To determine the role of the Mas-Gq-PLC pathway in regulating coronary flow, the Mas inverse agonist AR244555 (5 μM) or the PLC inhibitor U-73122 (0.5 μM) was added to the perfusion buffer for 10 min and then the agonist AR234960 (1 μM) was added to the perfusion buffer. Coronary flow was recorded for another 10 min Changes in coronary flow induced by AR234960 were calculated as percentage of the coronary flow at 10 min following AR234960 treatment, relative to the coronary flow measured immediately prior to addition of AR234960. This protocol allowed for measurement of agonist mediated vasoconstrictor activity, and accounted for changes in baseline coronary flow due to inverse agonist treatment alone.
To determine whether Mas agonist-induced changes in coronary flow were endothelium-dependent, the responses in Langendorff perfused hearts were measured after chemical removal of endothelium with sodium deoxycholate. After a 20-min equilibration period, sodium deoxycholate was added to the perfusion buffer at 0.2 mg/mL for 3 min and then washed out for 10 min Mas compounds were added and coronary flow was recorded for 10 min Adenosine (1 μM), a coronary vasodilator that targets the endothelium, was used as a control to verify effective removal of endothelium.

control HEK293 cells = test: HTRF IP1 assay in control HEK293 cells; type: cell-based; conditions: IP assay
From the text: Human and rat Mas receptors were either transiently or stably expressed in HEK293 cells. For transient transfections, human or rat Mas in pHM6 vector were transfected into HEK293 cells using Lipofectamine® (Invitrogen #18324-012). HEK293 cells transfected with empty pHM6 vector were used as a control. For generation of stable cell lines, cDNA expression plasmids encoding human or rat Mas genes and the neo^r gene were transfected into HEK293 cells (ATCC# CRL-1573) using Lipofectamine® (Invitrogen) according to the manufacturer's instructions. Stable receptor expressing pools were then generated over 3 weeks by standard techniques in the presence of 500 μg/mL Geneticin® (Gibco). Individual receptor stable pools were dilution cloned using standard techniques and clones were comparatively evaluated in inositol phosphate accumulation assays. Preferred clones were banked and cultured as needed. HEK293 cells were used as controls. The 384 well IP-One HTRF® Assay (Cisbio #62P1APEJ) was performed as described by the manufacturer's protocol. Cells were plated in at 100,000 cells per well in 15 μL DMEM (Gibco #11960) and incubated in a CO2 incubator at 37° C. for 2 h. […] IP1 levels in each well were calculated according to the standard curves on each plate. […]

Row | SMILES | mean arterial blood pressure (MAP) compared to vehicle treatment [1] | Suppression of TNFα induction compared with positive control (LPS induced TNFα; 10 mg/kg i.v., IB-MECA 1 mg/kg) | Suppression of TNFα induction (LPS induced TNFα; 1, 3 or 10 mg/kg i.v. 1 hour before 500 μg LPS i.p., serum 75 minutes after LPS) | coronary flow in isolated perfused rat hearts ([2]; AR244555 5 μM, 10 min) | compound-mediated change in coronary flow in endothelium denuded hearts ([2]; after sodium deoxycholate, adenosine 1 μM) | effects in control HEK293 cells (control HEK293 cells)
1 | NC(=O)[C@H](CO)NCc1ccc(C(=O)Nc2ccc(Cl)cc2N2CCN(CCC(F)(F)F)CC2)c(F)c1F [Compound 170, (S)-4-((1-Amino-3-hydroxy-1-oxopropan-2-ylamino)methyl)-N-(4-chloro-2-(4-(3,3,3-trifluoropropyl)piperazin-1-yl)phenyl)-2,3-difluorobenzamide] | no significant effect | not statistically different from the positive control IB-MECA | significant to control treated animals at the 10 and 3 mg/kg dose; also recorded: suppression of TNFα induction | – | – | –
2 | COc1cc([N+](=O)[O-])ccc1S(=O)(=O)N1CC(CN2CCN(c3ccccn3)CC2)C(c2cccc(F)c2)C1 (stereo not drawn) [AR234960] | – | – | – | decrease in coronary flow; also recorded: significantly decreased | preserved | There were detected effects
